# Reference: US20220290196A1, “GENETICALLY ENGINEERED MICROBES AND BIOSYNTHETIC METHODS” (The Regents of the University of California, priority 2019, published 2022)
# Where “and” joins values, the source holds several entries; their conditions need not be identical. Equal entries are not always repeated.
# B1: Saccharomonospora sp. CNQ-490 Tar13 (tryptophan 2,3-dioxygenase), wild type, SEQ ID NO: 1 (expressed SEQ ID NO: 2) (Saccharomonospora piscinae) (protein)
# chain: MTERTATRTEPAYGEILRLDELLELACVNDEADRALFLSAHQACEIWFAVVLRHLEDVTDALSLDDGATAAELLERLPRIITVIIEHFEVLGTLKPEAFDRIRADLGSSSGFQSVQYREIEYLCGARDTRFLNTAGFRDRDRRRLRERLAKRSLSNVFLEYRGRAGDRDACRISDALHEFDDSVRALRLRHAGIAELFLGSIPGTAGTAGAAYLRRSASRTLFPELFDRRASGTGG
# Tests used:
# Tar14 = Tar14 in vitro halogenation assay with substrate analogues; type: biochemical, Saccharomonospora sp. CNQ-490; details: substrate 0.25 mM, Tar14 5 μM, 30° C., 4 h; for Enzyme assays, % conversion, Tar14, Br^−: KBr 100 mM; for Enzyme assays, % conversion, Tar14, Cl^−: NaCl 100 mM
# Procedure: Tar14. Tar14 reaction mixture of total volume 100 μL in 1.5 mL Eppendorf tube was composed of the following components:
# Buffer (10 mM Tris, 10% glycerol, pH 7.6): up to 100 μL
# Tar13 = Tar13 in vitro assay with substrate analogues; type: biochemical, Saccharomonospora sp. CNQ-490; details: for Enzyme assays, % conversion, Tar13: substrate 0.25 mM, Tar13 20 μM, overnight at 30° C.
# Procedure: Tar13. Upon testing different reaction compositions (buffers, concentration of ascorbic acids and hemin, pH), the following conditions were found as optimal:
# (§1) Buffer: up to 50 μL (50 mM Tris, 500 mM NaCl 10% glycerol, pH 8.0)
# (§2) In a separate Eppendorf tube premix:
# Add substrate solution to the enzyme mixture to start reaction
# When Tar13 was directly added to the enzyme reaction, immediate protein precipitation occurred. The same was observed if the enzyme was not pre-mixed with hemin and ascorbic acid. Full substrate conversion was achieved after overnight incubation at 30° C. in 1.5 mL Eppendorf tube with shaking. The reactions were quenched by addition of equal volume of HPLC grade methanol.
# Tar16 = assay: Coupled Tar13/Tar16 assay (Tar16 substrate generated in situ by Tar13); type: biochemical, Saccharomonospora sp. CNQ-490; details: for Enzyme assays, % conversion, Tar16: substrates generated in situ by Tar13, Tar16 10 μM, overnight at 30° C.
# Procedure: Coupled Tar13 Tar]6. The reaction mixture of total volume 100 μL in 1.5 mL Eppendorf tube was composed of the following components:
# Buffer: up to 50 μL (50 mM Tris, 500 mM NaCl 10% glycerol, pH 8.0
# Substrate (for Tar13 enzyme): 0.25 μM
# as §2
# Buffer: up to […] (50 mM Tris, 500 mM NaCl 10% glycerol, pH 8.0)
# Add substrate solution to the enzyme mixture to start reaction.
# No difference in conversion was observed when Tar16 was added into the assay mixture either together with Tar13, or after 2 h of incubation at 30° C., or after overnight incubation at 30° C., followed by another 4 h of incubation after addition of Tar16. Therefore, for convenience, all components were mixed at the same time point, the reactions were incubated at 30° C. overnight, after which the assays were quenched by addition of equal volume of HPLC grade methanol.
# [1] = tested on: S. coelicolor M1146-tarM1Δtar14; assay: Feeding/chemical complementation experiment, incorporation into taromycin; type: cell-based, Streptomyces coelicolor; details: for Feeding, % incorporation, A1 + A13 domain: incorporation at residue-1 and residue-13; for Feeding, % incorporation, A1 + A13 domain / Feeding, % incorporation, A1 domain: analogue fed at 2 mM, judged by comparison to taromycin yields by S. coelicolor M1146-tarM1; for Feeding, % incorporation, A1 domain: incorporation only at residue-1
# Procedure: For taromycin production, seed culture in TSBY medium was inoculated with corresponding S. coelicolor spore suspension (collected from fresh SFM plates) and was cultured for 36-48 h till a dense creamy consistency was reached. Kanamycin at 10 μg mL^−1 final concentration was added to the seed cultures of S. coelicolor M1146-pCAP01-tarM1 and S. coelicolor M1146-pCAP01-tarM1Δtar14. Inocula of seed culture (5%, v/v) were used for fermentation in MP medium (1% glucose, 1% soluble starch, 0.4% peptone, 0.3% yeast extract, 0.3% soytone, 0.2% meat extract, 0.2% CaCO3, and 0.5% NaCl, pH 7.2). Fermentation was carried out at 30° C. and 220 rpm in a rotary incubator for 6 days. A maximum of 40 mL of production medium was added into 250 mL flask with metal springs.
# S. coelicolor M1146-pCAP01-tarM1Δtar14 cultures were grown as described in Section 3 for taromycin production. After 18 and 36 h of cultivation, tryptophan analogues in the form of water suspension were added to the production cultures to a final concentration 2 mM. The cultures were further incubated for 5 days before extraction and further analysis by LC-HRMS^n. All experiments were repeated independently twice with three replicates for each compound. In parallel, cultures of S. coelicolor M1146-pCAP01-tarM1 and S. coelicolor M1146-pCAP01-tarM1Δtar14 were grown as controls.
# To analyze production of taromycins and analogues, solid phase extraction of the culture supernatants was performed with Amberlite XAD-16 resin (SIGMA). For analytical purposes around 1 g of washed and equilibrated resin was added to 20 mL of supernatant followed by shaking for 30-60 min. Samples were then spun down and decanted. The resin was washed twice with water (15 mL), before elution with methanol (5 mL). The methanol extracts from the resin were used for LCMS analysis without additional concentration step.
# [2] = tested on: Tar14, Tar13, and Tar13/16; assay: In vitro assays with Tar14, Tar13, and Tar13/16 (FIG. 20 summary); type: biochemical, Saccharomonospora sp. CNQ-490; details: Tar14, Tar13, Tar13/16
# [3] = substrate: N[C@@H](Cc1c[nH]c2cc(Cl)ccc12)C(=O)O; assay: Kinetic characterization of Tar13-catalyzed oxidation of L-6-Cl-tryptophan; type: biochemical, Saccharomonospora sp. CNQ-490; details: other: Tar13, L-6-Cl-Trp, 30° C., pH 8.0
# Procedure: To determine kinetic parameters for Tar13-catalyzed oxidation of L-6-Cl-tryptophan, the following reaction conditions were used:
# as §1, §2
# The enzyme mixture was added to the substrate solution to start the reactions. The reactions were incubated at 30° C. for 5, 10, 15, 30 min, after which the assays were quenched by addition of equal volume of HPLC grade methanol and frozen at −70° C. till further analysis by HPLC. All assays were performed in triplicates for each substrate concentration and every time point. In parallel, for each time point and substrate concentration, assays with no added enzyme were used as controls. Prior HPLC analysis (method 5), L-tryptophan was added to the quenched reaction mixtures as an internal standard for quantification.
# Product formation was quantitated by calculating decrease of the area of the remaining substrate in comparison to the substrate peak area in the control with no enzyme added, and the ratio of peak areas to internal standard were fitted into a calibration curve to determine product concentrations.
Molecule,"Enzyme assays, % conversion, Tar14, Br^− (Tar14) [%]","Enzyme assays, % conversion, Tar14, Cl^− (Tar14) [%]","Enzyme assays, % conversion, Tar13 (Tar13) [%]","Enzyme assays, % conversion, Tar16 (Tar16) [%]","Feeding, % incorporation, A1 domain [1] [%]",other results
"Nc1cc(Cl)ccc1C(=O)CC(N)C(=O)O [Compound 1, L-4-chlorokynurenine]",5,<1,–,–,–,–
"Nc1ccccc1C(=O)C[C@H](N)C(=O)O [Compound 5, L-kynurenine]",30,30,–,–,–,–
"N[C@@H](Cc1c[nH]c2cc(Cl)ccc12)C(=O)O [Compound 7, L-6-Chlorotryptophan]",<5,–,100,100,–,"Conversion/activity as substrate for Tar13 (Tar13): complete conversion; Conversion in coupled Tar13/Tar16 reaction (Tar16; Tar16 added to Tar13 reaction): full conversion; Chemical complementation of taromycin production ([1]; S. coelicolor M1146-tarM1Δtar14 mutant fed with compound): restored taromycin production; Feeding, % incorporation, A1 + A13 domain [1]: 100%"
"N[C@@H](Cc1c[nH]c2ccc(Br)cc12)C(=O)O [Compound 8, L-5-Bromotryptophan]",–,<1,<1,100,50,–
"N[C@@H](Cc1c[nH]c2cc(Br)ccc12)C(=O)O [Compound 9, L-6-bromotryptophan]",<1,–,100,100,–,"Feeding, % incorporation, A1 + A13 domain [1]: 20%"
"N[C@H](Cc1c[nH]c2ccccc12)C(=O)O [Compound 11, D-tryptophan]",20,15,<1,40,–,–
"N[C@@H](Cc1c[nH]c2cccc(Br)c12)C(=O)O [Compound 12, L-4-bromotryptophan]",<5,<1,–,–,–,–
"N[C@@H](Cc1c[nH]c2ccc(Cl)cc12)C(=O)O [Compound 14, D/L-5-chlorotryptophan]",<1,<1,<1,100,30,–
"N[C@@H](Cc1c[nH]c2cccc(F)c12)C(=O)O [Compound 15, D/L-4-fluorotryptophan]",15,10,–,–,15,"Feeding, % incorporation, A1 + A13 domain [1]: 15%"
"N[C@@H](Cc1c[nH]c2cc(F)ccc12)C(=O)O [Compound 16, D/L-6-fluorotryptophan]",25,25,5,100,<5,"Feeding, % incorporation, A1 + A13 domain [1]: 90%"
"Cc1cccc2[nH]cc(C[C@H](N)C(=O)O)c12 [Compound 17, D/L-4-methyltryptophan]",75,100,–,–,40,–
"Cc1ccc2[nH]cc(C[C@H](N)C(=O)O)c2c1 [Compound 18, D/L-5-methyltryptophan]",25,50,<1,70,35,–
"NC(Cc1c[nH]c2ccc([N+](=O)[O-])cc12)C(=O)O [Compound 21, D/L-5-NO2-Trp]",–,–,–,–,60,–
"NCCc1c[nH]c2ccc(O)cc12 [Compound 22, serotonine]",–,–,–,–,–,Conversion by any of the enzymes [2]: not converted by any of the enzymes
"N[C@@H](Cc1ccc(O)cc1)C(=O)O [Compound 23, L-tyrosine]",–,–,–,–,–,Conversion by any of the enzymes [2]: not converted by any of the enzymes
"N[C@@H](Cc1ccccc1)C(=O)O [Compound 24, L-phenylalanine]",–,–,–,–,–,Conversion by any of the enzymes [2]: not converted by any of the enzymes
L-5-CH3O-Trp [Compound 19],<5,<1,<1,100,15,–
L-5-OH-Trp [Compound 20],<1,5,–,–,10,–
L-7-Br-Trp [Compound 13],100,100,–,–,<5,–
B1,–,–,–,–,–,Vmax [3]: 0.061 ± 0.006 µM/s; kcat [3]: 0.03 s⁻¹ and 0.031 ± 0.003 s⁻¹
